Measurements reported in US6461997B1, “Triazole sulfones having herbicidal activity” (Monsanto Technology LLC, priority 1999, dated 2002).

Tests used:
[1] = tested on: CHEAL (common lambsquarters); experiment: Pre-emergence herbicidal activity, warm season; assay type: in vivo, Chenopodium album; conditions: GR80 = lowest tested rate (300, 100, 30, 10 g/ha) with 80% or greater inhibition; approx. 14 days after treating; 30/21° C.
Description: (§1) Tables 5 to 8 summarize results of tests conducted as described below to determine the pre-emergence herbicidal activity, in the form of a GR80 value, of illustrative compounds of this invention. […] Compounds of the invention were typically applied at rates of 300, 100, 30, and 10 g/ha. Where herbicidal activity was evident but 80% inhibition was not achieved at the highest rate tested, an asterisk (*) is shown in the following tables.
(§2) The pre-emergence tests were conducted by the following procedure. Topsoil was sieved to pass through a 1.27 cm screen. Fertilizer was added to the topsoil and the mixture was then sterilized by heating. The topsoil mixture was placed in a pot and compacted to a depth of 1.0 to 1.25 cm from the top of the pot. Seeds of each of several monocotyledonous and dicotyledonous annual plant species were placed on top of the soil. Additional soil was subsequently placed over the seeds to level-fill the pot. A known amount of each test compound dissolved or suspended in an appropriate organic solvent was diluted with a 50:50 mix of acetone and water and applied to the surface of the soil. After treatment the plants were placed in a greenhouse where they received 0.64 cm of overhead irrigation. All subsequent watering consisted of a light overhead mist and/or subirrigation as needed for germination and growth. Tables 5 and 6 below relate to warm season plant species which were placed after pre-emergence treatment in a greenhouse with a 30/21° C. day/night temperature regime. Tables 7 and 8 below relates to cool season plant species placed after pre-emergence treatment in a greenhouse or growth chamber with an 18/13° C. day/night temperature regime.
(§3) Approximately 14 days after planting and treating, the plants were observed and herbicidal efficacy recorded as percent inhibition by comparison with untreated plants.
(§4) The plant species usually regarded as weeds which were utilized in the tests are identified in the tables below according to the following legend, in which “d” indicates a dicotyledonous species and “m” a monocotyledonous species. All monocotyledonous species included in the tests herein are grasses.

STEME (common chickweed) = experiment: Pre-emergence herbicidal activity, cool season; assay type: in vivo, Stellaria media; conditions: lowest tested rate with 80% or greater inhibition; rates 300, 100, 30, 10 g/ha; about 14 days
Outline: (§5)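 GR80 values derive from percent inhibition relative to untreated plants, read roughly 14 days after sowing and pre-emergence soil-surface treatment (compound in 50:50 acetone/water; rates typically 10, 30, 100, 300 g/ha). Warm-season weeds grew at 30/21° C day/night, cool-season ones at 18/13° C; an asterisk marks activity without reaching 80% at the highest rate.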

POLCO (wild buckwheat) = experiment: Pre-emergence herbicidal activity, cool season; assay type: in vivo, Polygonum convolvulus; conditions: lowest tested rate with 80% or greater inhibition; rates 300, 100, 30, 10 g/ha; about 14 days
Outline: (§6)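 Under 18/13 °C (ALOMY, POLCO) or 30/21 °C (PANMI, DIGSA) day/night, pre-emergence soil-surface treatments at 300, 100, 30 and 10 g/ha were evaluated after roughly 14 days. GR80 reflects percent inhibition relative to untreated plants.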

DATST (jimsonweed) = experiment: Pre-emergence herbicidal activity, warm season; assay type: in vivo, Datura stramonium; conditions: GR80 = lowest tested rate (300, 100, 30, 10 g/ha) with 80% or greater inhibition; approx. 14 days after treating; 30/21° C.
Description: as §1, §2, §3, §4

[2] = tested on: LAMPU (purple deadnettle); experiment: Pre-emergence herbicidal activity, cool season; assay type: in vivo, Lamium purpureum; conditions: lowest tested rate with 80% or greater inhibition; rates 300, 100, 30, 10 g/ha; about 14 days
Outline: as §5

[3] = tested on: GALAP (catchweed bedstraw); experiment: Pre-emergence herbicidal activity, cool season; assay type: in vivo, Galium aparine; conditions: lowest tested rate with 80% or greater inhibition; rates 300, 100, 30, 10 g/ha; about 14 days
Outline: as §5

SETVI (green foxtail) = experiment: Pre-emergence herbicidal activity, cool season; assay type: in vivo, Setaria viridis; conditions: GR80 = lowest tested rate (300, 100, 30, 10 g/ha) with 80% or greater inhibition; approx. 14 days after treating; 18/13° C.
Outline: as §5

SASKR (russian thistle) = experiment: Pre-emergence herbicidal activity, cool season; assay type: in vivo, Salsola kali; conditions: lowest tested rate with 80% or greater inhibition; rates 300, 100, 30, 10 g/ha; about 14 days
Outline: as §5

SINAR (wild mustard) = experiment: Pre-emergence herbicidal activity, cool season; assay type: in vivo, Sinapis arvensis; conditions: lowest tested rate with 80% or greater inhibition; rates 300, 100, 30, 10 g/ha; about 14 days
Outline: as §5

[4] = tested on: VERPE (creeping speedwell); experiment: Pre-emergence herbicidal activity, cool season; assay type: in vivo, Veronica persicaria; conditions: lowest tested rate with 80% or greater inhibition; rates 300, 100, 30, 10 g/ha; about 14 days
Outline: as §5

SORVU (shattercane) = experiment: Pre-emergence herbicidal activity, warm season; assay type: in vivo, Sorghum vulgare; conditions: GR80 = lowest tested rate (300, 100, 30, 10 g/ha) with 80% or greater inhibition; approx. 14 days after treating; 30/21° C.
Description: as §1, §2, §3, §4

ECHCG (barnyardgrass) = experiment: Pre-emergence herbicidal activity, warm season; assay type: in vivo, Echinochloa crus-galli; conditions: GR80 = lowest tested rate (300, 100, 30, 10 g/ha) with 80% or greater inhibition; approx. 14 days after treating; 30/21° C.
Outline: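 Seeds sown in sterilised fertilised topsoil received surface-applied compound in 50:50 acetone/water, typically at 300, 100, 30 and 10 g/ha, then greenhouse-grown at 30/21° C (warm-season species) or 18/13° C (cool-season species). Percent inhibition versus untreated plants was scored at about 14 days, giving GR80; an asterisk marks activity short of 80% at the top rate.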

DIGSA (large crabgrass) = experiment: Pre-emergence herbicidal activity, warm season; assay type: in vivo, Digitaria sanguinalis; conditions: GR80 = lowest tested rate (300, 100, 30, 10 g/ha) with 80% or greater inhibition; approx. 14 days after treating; 30/21° C.
Description: as §1, §2, §3, §4

[5] = tested on: SORHA (johnsongrass (seedling)); experiment: Pre-emergence herbicidal activity, warm season; assay type: in vivo, Sorghum halepense; conditions: GR80 = lowest tested rate (300, 100, 30, 10 g/ha) with 80% or greater inhibition; approx. 14 days after treating; 30/21° C.
Description: as §1, §2, §3, §4

[6] = tested on: PANMI (wild proso millet); experiment: Pre-emergence herbicidal activity, warm season; assay type: in vivo, Panicum miliaceum; conditions: GR80 = lowest tested rate (300, 100, 30, 10 g/ha) with 80% or greater inhibition; approx. 14 days after treating; 30/21° C.
Outline: as §6

[7] = tested on: AGSST (creeping bentgrass); experiment: Pre-emergence herbicidal activity, cool season; assay type: in vivo, Agrostis stolonifera; conditions: GR80 = lowest tested rate (300, 100, 30, 10 g/ha) with 80% or greater inhibition; approx. 14 days after treating; 18/13° C.
Outline: as §5

SETFA (giant foxtail) = experiment: Pre-emergence herbicidal activity, warm season; assay type: in vivo, Setaria faberi; conditions: GR80 = lowest tested rate (300, 100, 30, 10 g/ha) with 80% or greater inhibition; approx. 14 days after treating; 30/21° C.
Description: as §1, §2, §3, §4

POROL (common purslane) = experiment: Pre-emergence herbicidal activity, warm season; assay type: in vivo, Portulaca oleracea; conditions: GR80 = lowest tested rate (300, 100, 30, 10 g/ha) with 80% or greater inhibition; approx. 14 days after treating; 30/21° C.
Description: as §1, §2, §3, §4

SOLNI (black nightshade) = experiment: Pre-emergence herbicidal activity, warm season; assay type: in vivo, Solanum nigrum; conditions: GR80 = lowest tested rate (300, 100, 30, 10 g/ha) with 80% or greater inhibition; approx. 14 days after treating; 30/21° C.
Description: as §1, §2, §3, §4

[8] = tested on: BRAPP (broadleaf signalgrass); experiment: Pre-emergence herbicidal activity, warm season; assay type: in vivo, Brachiaria platyphylla; conditions: GR80 = lowest tested rate (300, 100, 30, 10 g/ha) with 80% or greater inhibition; approx. 14 days after treating; 30/21° C.
Description: as §1, §2, §3, §4

ABUTH (velvetleaf) = experiment: Pre-emergence herbicidal activity, warm season; assay type: in vivo, Abutilon theophrasti; conditions: GR80 = lowest tested rate (300, 100, 30, 10 g/ha) with 80% or greater inhibition; approx. 14 days after treating; 30/21° C.
Description: as §1, §2, §3, §4

LOLMG (annual ryegrass) = experiment: Pre-emergence herbicidal activity, cool season; assay type: in vivo, Lolium multiflorum; conditions: GR80 = lowest tested rate (300, 100, 30, 10 g/ha) with 80% or greater inhibition; approx. 14 days after treating; 18/13° C.
Description: as §1, §2, §3, §4

AMARE (redroot pigweed) = experiment: Pre-emergence herbicidal activity, warm season; assay type: in vivo, Amaranthus retroflexus; conditions: GR80 = lowest tested rate (300, 100, 30, 10 g/ha) with 80% or greater inhibition; approx. 14 days after treating; 30/21° C.
Description: as §1, §2, §3, §4

ALOMY (blackgrass) = experiment: Pre-emergence herbicidal activity, cool season; assay type: in vivo, Alopecurus myosuroides; conditions: GR80 = lowest tested rate (300, 100, 30, 10 g/ha) with 80% or greater inhibition; approx. 14 days after treating; 18/13° C.
Description: as §1, §2, §3, §4

| SMILES | Pre-emergence activity (GR80) CHEAL [1] [g/ha] | Pre-emergence activity GR80, STEME (STEME (common chickweed)) | Pre-emergence activity GR80, POLCO (POLCO (wild buckwheat)) [g/ha] | Pre-emergence activity GR80, LAMPU [2] | Pre-emergence activity GR80, GALAP [3] | Pre-emergence activity (GR80) SETVI (SETVI (green foxtail)) [g/ha] | Pre-emergence activity GR80, SASKR (SASKR (russian thistle)) | Pre-emergence activity GR80, SINAR (SINAR (wild mustard)) | Pre-emergence activity GR80, VERPE [4] | Pre-emergence activity (GR80) ECHCG (ECHCG (barnyardgrass)) [g/ha] | Pre-emergence activity (GR80) SORHA [5] [g/ha] | Pre-emergence activity (GR80) PANMI [6] [g/ha] | Pre-emergence activity (GR80) AGSST [7] [g/ha] | Pre-emergence activity (GR80) SETFA (SETFA (giant foxtail)) [g/ha] | also measured |
| --- | --- | --- | --- | --- | --- | --- | --- | --- | --- | --- | --- | --- | --- | --- | --- |
| CCSC(F)(F)S(=O)(=O)c1ncn(C(=S)N(CC)CC)n1 [Example 58] | 300 | 300 g/ha | 300 | 300 g/ha | 300 g/ha | 300 | 300 g/ha | [empty] | 300 g/ha | – | – | – | – | – | Pre-emergence activity (GR80) DATST (DATST (jimsonweed)): 300 g/ha |
| CCSC(F)(F)S(=O)(=O)c1ncn(C(=O)N(C)C2CCCCC2)n1 [Example 55] | 300 | [empty] | 300 | [empty] | [empty] | 300 | [empty] | [empty] | [empty] | 300 | 300 | 100 | 300 | 300 | Pre-emergence activity (GR80) SORVU (SORVU (shattercane)): 300 g/ha; Pre-emergence activity (GR80) DIGSA (DIGSA (large crabgrass)): 300 g/ha; Pre-emergence activity (GR80) POROL (POROL (common purslane)): 300 g/ha; Pre-emergence activity (GR80) SOLNI (SOLNI (black nightshade)): 300 g/ha; Pre-emergence activity (GR80) BRAPP [8]: 300 g/ha; Pre-emergence activity (GR80) ABUTH (ABUTH (velvetleaf)): 300 g/ha |
| CCCN(CC)C(=O)n1cnc(S(=O)(=O)C(F)(F)Br)n1 [Example 39] | 300 | 30 g/ha | 100 | 30 g/ha | 100 g/ha | 100 | 100 g/ha | 30 g/ha | 10 g/ha | 300 | 100 | 300 | 30 | 100 | Pre-emergence activity (GR80) LOLMG (LOLMG (annual ryegrass)): 300 g/ha; Pre-emergence activity (GR80) AMARE (AMARE (redroot pigweed)): 300 g/ha; Pre-emergence activity (GR80) ALOMY (ALOMY (blackgrass)): 300 g/ha |
